Reference: ChEMBL document CHEMBL4725424, “The Resurrection of Phenotypic Drug Discovery” (ACS Med Chem Lett, 2020)
pIC50: −log10 of the molar value.

Columns and labels:
[1] = biological target: Cyclin-dependent kinase 1/cyclin B1 (Homo sapiens, UniProt P06493); assay: Inhibition of CDK1/cyclinB (unknown origin); assay type: protein-complex assay
CDK2/Cyclin A2 = CDK2/Cyclin A2 (Homo sapiens, UniProt P24941); assay: Inhibition of CDK2/cyclinA (unknown origin); assay type: protein-complex assay
[2] = biological target: Cyclin-dependent kinase 2/cyclin E1 (Homo sapiens, UniProt P24941); assay: Inhibition of CDK2/cyclinE (unknown origin); assay type: protein-complex assay
CDK3/Cyclin E = CDK3/Cyclin E (Homo sapiens, UniProt Q00526); assay: Inhibition of CDK3/cyclinE (unknown origin); assay type: protein-complex assay
Chain of CDK3/Cyclin E (P24864 whole entry): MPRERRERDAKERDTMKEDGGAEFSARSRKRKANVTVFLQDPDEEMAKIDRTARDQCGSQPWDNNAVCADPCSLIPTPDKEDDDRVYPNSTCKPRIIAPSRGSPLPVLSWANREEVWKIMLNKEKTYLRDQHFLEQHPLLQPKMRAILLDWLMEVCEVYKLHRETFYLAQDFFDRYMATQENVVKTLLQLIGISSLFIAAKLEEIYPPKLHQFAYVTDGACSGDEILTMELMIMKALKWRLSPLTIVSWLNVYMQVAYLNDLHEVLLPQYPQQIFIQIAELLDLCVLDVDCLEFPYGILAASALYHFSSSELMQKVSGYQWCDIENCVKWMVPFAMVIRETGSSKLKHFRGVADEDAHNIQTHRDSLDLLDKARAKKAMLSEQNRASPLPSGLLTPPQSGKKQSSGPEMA
Chain of CDK3/Cyclin E (Q00526 whole entry): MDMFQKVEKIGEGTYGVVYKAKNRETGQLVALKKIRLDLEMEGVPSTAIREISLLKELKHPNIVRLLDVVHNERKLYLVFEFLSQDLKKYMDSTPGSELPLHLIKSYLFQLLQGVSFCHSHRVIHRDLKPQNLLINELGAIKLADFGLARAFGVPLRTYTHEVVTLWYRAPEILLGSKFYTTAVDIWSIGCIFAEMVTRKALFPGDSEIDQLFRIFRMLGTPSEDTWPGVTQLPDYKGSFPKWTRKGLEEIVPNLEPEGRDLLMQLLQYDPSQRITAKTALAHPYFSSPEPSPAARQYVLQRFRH

[3] = biological target: Cyclin-dependent kinase 4/cyclin D1 (Homo sapiens, UniProt P11802); assay: Inhibition of CDK4/cyclinD (unknown origin); assay type: protein-complex assay
Chain of Cyclin-dependent kinase 4/cyclin D1 (P11802 whole entry): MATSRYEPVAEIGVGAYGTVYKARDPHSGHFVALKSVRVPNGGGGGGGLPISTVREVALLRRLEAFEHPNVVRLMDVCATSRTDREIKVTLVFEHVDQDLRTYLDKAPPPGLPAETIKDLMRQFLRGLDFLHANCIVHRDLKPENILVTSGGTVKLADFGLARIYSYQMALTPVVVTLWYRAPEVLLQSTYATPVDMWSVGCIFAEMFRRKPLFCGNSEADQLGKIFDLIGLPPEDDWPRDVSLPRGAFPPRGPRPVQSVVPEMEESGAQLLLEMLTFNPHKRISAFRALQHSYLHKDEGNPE
Chain of Cyclin-dependent kinase 4/cyclin D1 (P24385 whole entry, further chain): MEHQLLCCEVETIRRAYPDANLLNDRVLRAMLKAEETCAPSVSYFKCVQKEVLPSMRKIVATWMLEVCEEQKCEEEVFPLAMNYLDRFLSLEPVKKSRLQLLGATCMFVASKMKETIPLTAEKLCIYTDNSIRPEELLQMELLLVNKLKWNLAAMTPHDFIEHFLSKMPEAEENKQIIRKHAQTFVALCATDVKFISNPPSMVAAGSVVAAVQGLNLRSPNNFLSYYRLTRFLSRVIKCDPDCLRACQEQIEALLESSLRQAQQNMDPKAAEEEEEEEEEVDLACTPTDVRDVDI

[4] = biological target: T1, Cyclin-dependent kinase 5/CDK5 activator 1 (Homo sapiens, UniProt Q00535); assay: Inhibition of CDK5/p35 (unknown origin); assay type: protein-complex assay
T1 sequence (Q00535 whole entry): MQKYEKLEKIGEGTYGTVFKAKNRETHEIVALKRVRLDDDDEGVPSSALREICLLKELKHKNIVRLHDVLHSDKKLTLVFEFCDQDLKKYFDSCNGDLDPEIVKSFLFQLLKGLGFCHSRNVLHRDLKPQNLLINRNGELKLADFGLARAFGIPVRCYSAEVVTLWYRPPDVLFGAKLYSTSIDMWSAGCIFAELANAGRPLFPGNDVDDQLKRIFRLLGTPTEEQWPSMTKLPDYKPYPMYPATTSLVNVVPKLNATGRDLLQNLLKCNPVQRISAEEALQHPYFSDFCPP
T1 sequence (Q15078 whole entry, further chain): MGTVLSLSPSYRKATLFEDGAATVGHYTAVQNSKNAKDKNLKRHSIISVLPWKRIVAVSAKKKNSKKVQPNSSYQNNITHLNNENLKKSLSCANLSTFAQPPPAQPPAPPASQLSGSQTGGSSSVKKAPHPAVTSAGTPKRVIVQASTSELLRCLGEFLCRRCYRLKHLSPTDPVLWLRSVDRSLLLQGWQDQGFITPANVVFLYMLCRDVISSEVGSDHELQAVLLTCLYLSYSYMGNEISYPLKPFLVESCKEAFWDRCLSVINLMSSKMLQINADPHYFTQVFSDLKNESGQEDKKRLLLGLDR

[5] = biological target: T1, Cyclin-dependent kinase 5/CDK5 activator 1; assay: Inhibition of CDK5/p25 (unknown origin); assay type: protein-complex assay
[6] = Inhibition of CDK8/cyclinD3 (unknown origin); parameters: species or system Homo sapiens
CDK7/Cyclin H/MNAT1 = CDK7/Cyclin H/MNAT1 (Homo sapiens, UniProt P50613); assay: Inhibition of CDK7/cyclinH/MAT1 (unknown origin); assay type: protein-complex assay
Chain of CDK7/Cyclin H/MNAT1 (P51946 whole entry): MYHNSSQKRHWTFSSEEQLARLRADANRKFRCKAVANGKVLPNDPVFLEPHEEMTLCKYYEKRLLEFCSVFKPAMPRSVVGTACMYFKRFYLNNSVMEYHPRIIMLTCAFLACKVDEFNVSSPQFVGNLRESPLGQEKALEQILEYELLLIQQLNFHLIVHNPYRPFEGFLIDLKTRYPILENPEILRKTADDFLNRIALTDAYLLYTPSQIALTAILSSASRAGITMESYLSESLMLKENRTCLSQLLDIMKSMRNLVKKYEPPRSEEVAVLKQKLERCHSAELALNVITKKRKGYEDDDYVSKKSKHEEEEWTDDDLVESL
Chain of CDK7/Cyclin H/MNAT1 (P50613 whole entry): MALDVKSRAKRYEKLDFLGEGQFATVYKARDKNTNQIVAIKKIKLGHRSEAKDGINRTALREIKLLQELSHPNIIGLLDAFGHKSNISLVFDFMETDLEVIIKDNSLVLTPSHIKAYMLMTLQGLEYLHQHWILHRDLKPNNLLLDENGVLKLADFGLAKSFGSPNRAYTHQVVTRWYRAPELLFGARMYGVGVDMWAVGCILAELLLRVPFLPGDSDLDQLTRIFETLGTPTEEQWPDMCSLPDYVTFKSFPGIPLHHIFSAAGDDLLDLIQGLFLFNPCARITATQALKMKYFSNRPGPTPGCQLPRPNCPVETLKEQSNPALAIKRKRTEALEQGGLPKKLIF
Chain of CDK7/Cyclin H/MNAT1 (P51948 whole entry, further chain): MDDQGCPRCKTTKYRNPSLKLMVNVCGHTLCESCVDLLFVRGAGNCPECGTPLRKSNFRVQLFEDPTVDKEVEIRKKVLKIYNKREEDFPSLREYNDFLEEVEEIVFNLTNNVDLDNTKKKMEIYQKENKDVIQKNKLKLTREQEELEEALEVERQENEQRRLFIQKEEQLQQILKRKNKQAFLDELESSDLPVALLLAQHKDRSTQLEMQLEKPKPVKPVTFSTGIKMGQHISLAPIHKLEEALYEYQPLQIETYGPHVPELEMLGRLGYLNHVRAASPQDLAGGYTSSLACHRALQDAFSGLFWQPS

CDK9/cyclin T1 = CDK9/cyclin T1 (Homo sapiens, UniProt P50750); assay: Inhibition of CDK9/cyclinT1 (unknown origin); assay type: protein-complex assay
Chain of CDK9/cyclin T1 (O60563 whole entry): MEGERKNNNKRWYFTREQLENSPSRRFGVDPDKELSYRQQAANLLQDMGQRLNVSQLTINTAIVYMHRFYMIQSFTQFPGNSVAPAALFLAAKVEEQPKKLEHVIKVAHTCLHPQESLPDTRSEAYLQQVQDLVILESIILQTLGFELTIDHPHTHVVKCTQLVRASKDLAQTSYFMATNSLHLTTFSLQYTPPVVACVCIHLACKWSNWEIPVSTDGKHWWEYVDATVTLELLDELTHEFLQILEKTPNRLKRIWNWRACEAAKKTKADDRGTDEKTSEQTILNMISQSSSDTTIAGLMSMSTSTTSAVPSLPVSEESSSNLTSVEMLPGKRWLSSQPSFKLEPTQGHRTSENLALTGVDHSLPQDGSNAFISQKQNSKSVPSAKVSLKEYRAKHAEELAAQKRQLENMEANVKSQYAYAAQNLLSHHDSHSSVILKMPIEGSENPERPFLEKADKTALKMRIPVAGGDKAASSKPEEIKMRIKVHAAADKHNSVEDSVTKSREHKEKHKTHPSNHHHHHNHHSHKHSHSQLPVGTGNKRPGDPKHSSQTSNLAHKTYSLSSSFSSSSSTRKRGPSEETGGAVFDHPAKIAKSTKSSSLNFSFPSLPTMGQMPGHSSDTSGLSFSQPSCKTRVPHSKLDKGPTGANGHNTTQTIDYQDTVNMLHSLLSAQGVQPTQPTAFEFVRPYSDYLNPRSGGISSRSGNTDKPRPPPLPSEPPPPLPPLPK
Chain of CDK9/cyclin T1 (P50750 whole entry): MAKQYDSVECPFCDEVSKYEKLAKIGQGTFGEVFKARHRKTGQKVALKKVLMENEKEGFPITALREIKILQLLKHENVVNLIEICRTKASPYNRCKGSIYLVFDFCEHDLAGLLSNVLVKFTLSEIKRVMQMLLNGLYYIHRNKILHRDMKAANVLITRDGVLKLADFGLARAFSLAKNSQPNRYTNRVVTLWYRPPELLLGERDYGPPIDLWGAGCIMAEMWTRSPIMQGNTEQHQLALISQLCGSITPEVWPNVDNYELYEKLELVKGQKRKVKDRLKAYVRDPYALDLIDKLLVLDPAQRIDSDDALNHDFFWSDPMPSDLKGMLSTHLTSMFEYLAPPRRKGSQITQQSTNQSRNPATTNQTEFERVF

Homo sapiens = organism: Homo sapiens; assay: Selectivity index, ratio of IC50 for inhibition of CDK4/cyclinD (unknown origin) to IC50 for inhibition of CDK9/cyclinT1 (unknown origin)

Chain of Cyclin-dependent kinase 1/cyclin B1 (P06493 whole entry): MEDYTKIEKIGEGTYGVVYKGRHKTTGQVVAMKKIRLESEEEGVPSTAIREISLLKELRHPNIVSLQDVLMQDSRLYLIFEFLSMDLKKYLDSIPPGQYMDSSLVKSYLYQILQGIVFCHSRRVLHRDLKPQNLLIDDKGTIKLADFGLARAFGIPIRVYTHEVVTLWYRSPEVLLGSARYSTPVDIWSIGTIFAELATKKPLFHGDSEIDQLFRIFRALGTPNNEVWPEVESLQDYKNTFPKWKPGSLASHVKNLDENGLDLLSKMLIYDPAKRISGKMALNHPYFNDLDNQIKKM
Chain of Cyclin-dependent kinase 1/cyclin B1 (P14635 whole entry, further chain): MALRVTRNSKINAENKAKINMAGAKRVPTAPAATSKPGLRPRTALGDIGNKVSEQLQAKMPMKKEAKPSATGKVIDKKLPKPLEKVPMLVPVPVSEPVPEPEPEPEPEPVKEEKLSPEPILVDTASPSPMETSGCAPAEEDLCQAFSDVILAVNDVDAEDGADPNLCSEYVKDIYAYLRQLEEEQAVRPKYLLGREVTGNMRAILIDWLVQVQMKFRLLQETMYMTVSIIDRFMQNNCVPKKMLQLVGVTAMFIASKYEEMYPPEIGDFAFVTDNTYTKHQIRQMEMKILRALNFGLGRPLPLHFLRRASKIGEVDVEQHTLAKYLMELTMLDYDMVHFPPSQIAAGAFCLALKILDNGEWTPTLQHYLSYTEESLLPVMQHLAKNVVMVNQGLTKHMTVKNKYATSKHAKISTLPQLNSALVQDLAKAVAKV

- pIC50 [1]: 6.86
- pIC50 (CDK2/Cyclin A2): 6.63
- pIC50 [2]: 6.44
- pIC50 (CDK3/Cyclin E): 6.40
- pIC50 [3]: 6.95
- pIC50 [4]: 6.80
- pIC50 [5]: 6.73
- pIC50 [6]: 6.15
- pIC50 (CDK7/Cyclin H/MNAT1): 6.26
- pIC50 (CDK9/cyclin T1): 8.30
- Ratio IC50 (Homo sapiens): 22.5
Structure (SMILES): Nc1nc(N[C@H]2C[C@@H]3CC[C@H]2C3)sc1C(=O)c1ccccc1[N+](=O)[O-]
